Legend:
[1] = tested on: HER2/neu spontaneous mammary tumors; assay: HER2/neu transgenic spontaneous mammary tumor model: survival and toxicity; assay type: in vivo, mouse; conditions: single IV dose 5 mg/kg
Excerpt: We also performed a pilot efficacy study of hAnnA1-CMD-Pt(II) in a genetically engineered mouse HER2/neu model that develops spontaneous mammary tumors (GuyWebster et al., 1992; Reilly et al., 2000).

mammary tumors (N202) = assay: IVM ectopic-orthotopic (EO) mammary tumor model, spheroids in dorsal skin window chambers: tumor growth
Description: We used the classic IVM tumor model with modifications (Asaishi et al., 1981; Endrich et al., 1980; Vajkoczy et al., 2000). The mice, usually athymic nude mice (25-30 g body weight), were anesthetized (7.3 mg ketamine hydrochloride and 2.3 mg xylazine per 100 g body weight, intraperitoneal injection) and placed on a heating pad. A titanium frame was placed onto the dorsal skinfold of mice to sandwich the extended double layer of skin. A 15 mm diameter full-thickness circular layer of skin was then excised. The superficial fascia on top of the remaining skin was carefully removed to expose the underlying muscle and subcutaneous tissue which was then covered with another titanium frame with a glass coverslip to form the window chamber. After a recovery period of 1-2 days, tumor spheroids were implanted.
Tumor spheroids were formed by plating 50,000 cells onto 1% agar-coated 96-well non-tissue culture treated flat bottom dishes (20 μl cells in 100 μl medium) and centrifuging 4 times at 2000 rpm for 15 min, rotating the dish after every centrifugation. The cells were incubated an additional 3-7 days (depending on cell type) at 37° C. in 5% CO2 in air to form tight spheroids. BT-474 cells required 500,000 cells in the presence of Matrigel (BD Bioscience, San Diego) (1:1 cell volume dilution) to form spheroids in culture. […]
Tumors were imaged using intravital fluorescence microscopy, as described (Borgstrom et al., 2013; Oh et al., 2007; Oh et al., 2014). Tumor growth was analyzed off-line from the recorded, digital, grayscale 0-to-256 images using Image-Pro Plus (Media Cybernetics, Bethesda, Md.). Tumor growth was determined in 2 ways, by measuring the area with fluorescence signal from the GFP or CFP expressing tumor cells or by quantifying the cumulative fluorescence signal for the tumor over time. Tumor area is measured by counting the number of pixels with a grayscale intensity above 75, thereby making it easier to reliably follow irregularly shaped tumors. The cumulative tumor fluorescence signal was measured by signal summation of all pixels over 75. […]

N.N.[Cl][Pt][Cl] [cisplatin]
Mean extension in survival vs untreated controls [1]: 30 days

COc1cccc2c1C(=O)c1c(O)c3c(c(O)c1C2=O)C[C@@](O)(C(=O)CO)C[C@@H]3O[C@H]1C[C@H](N)[C@H](O)[C@H](C)O1 [free doxorubicin, doxorubicin]
Tumor response (IVM) (mammary tumors (N202); free drug 1 mg/kg): no effect
Tumor response (IVM) (mammary tumors (N202); free drug 5 mg/kg (near MTD)): slowed tumor growth modestly

CC(=O)O[C@@]12CO[C@@H]1C[C@H](O)[C@@]1(C)C(=O)[C@H](O)C3=C(C)[C@@H](OC(=O)[C@H](O)[C@@H](NC(=O)OC(C)(C)C)c4ccccc4)C[C@@](O)([C@@H](OC(=O)c4ccccc4)[C@H]21)C3(C)C [docetaxel]
Tumor response (mammary tumors (N202); unconjugated drug 5 mg/kg): produced less benefit

From patent US20200171165A1, “ENHANCED TARGETED DELIVERY OF THERAPEUTIC AGENTS” (Proteogenomics Research Institute for Systems Medicine, priority 2018, published 2020)
